A short description of data set [1]: Cellulose solubility (cellulose added in 1 wt % steps, heating and stirring 1 hour, visual). It counts as physicochemical. The protocol: The cellulose solubility of C1imC2OE3C obtained in Synthesis Example 1, OE2imC2OE3C obtained in Synthesis Example 2, and OE2imC3C (R^1═H3C(OCH2CH2)2, A=imidazolium cation, B=—COO^−, and n=0 (a compound having no oxyalkylene structure between the cationic and anionic moieties; the compound described in Non-Patent Literature 2)) as a comparative example was measured. […] The concentration at which cellulose dissolution was confirmed was visually measured.
Thus, when heating to 80° C., a stirrer rotated in C1imC2P and started to rotate smoothly at 120° C. Accordingly, a cellulose solubility experiment was performed at 120° C. Avicel was added in increments of 1 wt %, and when dissolved over 1 hour, additional Avicel was added in increments of 1 wt %. As a result of the experiment, C1imC2P dissolved 4 wt % Avicel.

Data set [2] is described as follows: Viscosity measurement (Brookfield viscometer, CPE52 spindle). Type of data set: physicochemical. The protocol:
The viscometer used was Brookfield LVDV2TCP with a CPE52 spindle, or Brookfield RVDV2T with a CPE52 spindle.
C1imC2OE3C obtained in Synthesis Example 1 and OE2imC2OE3C obtained in Synthesis Example 2 were measured for viscosity at 80° C. The viscometer used was Brookfield LVDV2TCP with a CPE52 spindle. The viscometer was heated to 80° C. by passing warm water therethrough, and the viscosity of the samples was measured.

Data set [3] can be described thus: State of the zwitterions at 25° C. It counts as physicochemical. The following applies: room temperature (25° C.). The protocol: C1imC2OE3C (R^1═CH3, A=imidazolium cation, R^3═CH2CH2, n=3, and B=—COO^−) obtained in Synthesis Example 1 and OE2imC2OE3C(R^1═H3C(OCH2CH2)2, A=imidazolium cation, R^3═CH2CH2, n=3, and B=—COO^−) obtained in Synthesis Example 2 were both liquid at room temperature (25° C.).

For data set [4], the system named is Kluyveromyces marxianus. Kind of data set: Toxicity to yeast (OD600 of culture in liquid medium). The following applies: culturing at 50° C., concentration and time of the value not stated. It counts as cell-based. As for the experimental part:
The toxicity of C1imC2P to yeast was examined. The yeast used was Kluyveromyces marxianus. C1imC2P was added to a liquid medium at concentrations of 0 mol/L, 0.01 mol/L, 0.05 mol/L, 0.1 mol/L, 0.5 mol/L and 1.0 mol/L respectively. This was inoculated with bacteria, and while culturing at 50° C., OD600 was measured with a plate reader 0, 2, 4, and 6 hours later. OD600 indicates the density of bacterial cells. Further, relative OD600 is a relative parameter when the control is 1.00. A higher value of relative OD600 indicates a lower toxicity of the zwitterion. The relative OD600 of C1imC2P was 0.77, indicating low toxicity.

Data set [5] can be described thus: TG-DTA pyrolysis temperature (weight loss on heating at 10° C./min). Type of data set: physicochemical. As for the experimental part:
Experimental method: Under N2 atmosphere, the temperature was increased to 500° C. at a rate of 10° C./min starting at room temperature. The pyrolysis point was evaluated at the intersection of the tangent lines between the steady state and the decomposition.
C1imC2OE3C obtained in Synthesis Example 1 was heated at a rate of 10° C./min, and the temperature at which the weight loss occurred (pyrolysis temperature) was measured. As a result, this compound was thermally decomposed at about 249° C. and was stable up to 249° C.

Data set [6] in a line: Differential scanning calorimetry. Type of data set: physicochemical. As for the experimental part:
Experimental method: Under N2 atmosphere, liquid nitrogen was used during cooling. After the temperature was increased at a rate of 10° C./min to 20° C. below the pyrolysis point starting at 25° C., two sets of “cooling to −100° C. at a rate of −10° C./min→heating to 20° C. below the pyrolysis point at a rate of 10° C./min” were repeated (holding time: 5 minutes for each stage), followed by cooling down to 25° C.
C1imC2OE3C obtained in Synthesis Example 1 was subjected to differential scanning calorimetry.
A general note: DSC measures the heat that a sample takes up or gives off during a temperature scan.

Each structure is given as a SMILES string.

`COCCOCCn1cc[n+](CCCC(=O)[O-])c1` [OE2imC3C, reference compound]: the Cellulose solubility in data set [1] (100° C.) came out at 6 wt %; in data set [1] (120° C.), 10 wt %. The “Viscosity at 80° C.” value in data set [2] is reported as 940 mPa · s. In addition, in data set [3], the “State at 25° C.” value was “solid”.
`C[n+]1ccn(CCOP(=O)([O-])O)c1` [Zwitterion C1imC2P]: in data set [1] (120° C., Avicel added in increments of 1 wt %, 1 hour each), the “Cellulose solubility (Avicel dissolved)” value was 4 wt %. In addition, the “Viscosity (in words)” value in data set [2] (100 wt % zwitterion, room temperature (25° C.)) is recorded as “very high viscosity”. In data set [4], the “relative OD600 (control is 1.00)” value worked out at 0.77. Further, in data set [3], the “State at 25° C.” value was “liquid”.
In the case of `C[n+]1ccn(CCOCCOCCOCCC(=O)[O-])c1` [Zwitterion C1imC2OE3C], the results for the Cellulose solubility in data set [1] (100° C.) and in data set [1] (120° C.) were 11 wt % and 14 wt %, respectively. Moreover, the “stable (does not decompose) up to temperature” value in data set [5] is “up to 249 °C”. In data set [5] (heated at a rate of 10° C./min), the “pyrolysis temperature (temperature at which the weight loss occurred)” value is “about 249 °C”. The “Viscosity at 80° C.” value in data set [2] is on record as 2,500 mPa · s. In addition, the “did not change / in a liquid state from room temperature up to temperature” value in data set [6] is “around 250 °C”. For the same molecule, the “State at 25° C.” value in data set [3] was “liquid”.
Turning to `COCCOCC[n+]1ccn(CCOCCOCCOCCC(=O)[O-])c1` [OE2imC2OE3C], the Cellulose solubility in data set [1] (100° C.) and in data set [1] (120° C.) was 11 wt % each time. Moreover, the “Viscosity at 80° C.” value in data set [2] was 810 mPa · s. The “State at 25° C.” value in data set [3] is on record as “liquid”.

Values taken from patent US20260167654A1, “PLANT CELL WALL-DISSOLVING AGENT” (Kanazawa University, priority 2022, published 2026).
